Results on two compounds are retold here after ChEMBL document CHEMBL1159347, “A novel constituent from Rollinia mucosa, rollicosin, and a new approach to develop annonaceous acetogenins as potential antitumor agents” (J Nat Prod, 2003).

Converted amounts (≈) assume the structure as drawn.

A short description of experiment [1]: Cytotoxicity against human HepG2(2.2.15) cells. It is filed as functional, cell-based.
Experiment [2] has as its system HepG2. Description: Cytotoxicity against human HepG2 cells. It is filed as functional, cell-based.

In general, IC50 refers to the midpoint of a concentration-inhibition curve. A lower IC50 goes with higher potency. In experiment [1], `COc1cccc2c1C(=O)c1c(O)c3c(c(O)c1C2=O)C[C@@](O)(C(=O)CO)C[C@@H]3O[C@H]1C[C@H](N)[C@H](O)[C@H](C)O1` [DOXORUBICIN] had an IC50 of 0.45 µg/mL (≈ 0.828 µM).

As for `C[C@H]1C=C(C[C@H](O)CCCCCCCCCC[C@@H](O)[C@H]2CCC(=O)O2)C(=O)O1` [ROLLICOSIN], the results for the IC50 in experiment [1] and in experiment [2] were 0.021 µg/mL (≈ 0.053 µM) and 0.1 µg/mL (≈ 0.252 µM), respectively.
